Assay results: US20080268445A1, “Ant2 Conditional Knockout Mouse and Methods” (Emory University, priority 2002, published 2008)
Entries after “also recorded” stand apart in the source; their conditions may differ. *1 amine or outer side, *2 acyl side, *3 side chain or, on linkers, in order; H or OH if unused. Where a SMILES comes first, the peptide text is derived from it. Bridges are numbered along the chain shown (N, C = ends). Roman numbers before positions name the chains, in order. [ ]: non-standard residue; d: D form. Actinocin(9to1) = Cc1c2oc3c(C)ccc(C(=O)[*:1])c3nc-2c(C(=O)[*:2])c(N)c1=O; NMeV = CN[C@H](C(=O)O)C(C)C; Sar = CNCC(=O)O

Assays:
mtPTP [1] = assay: Ca++-activation of the mtPTP in liver mitochondria, irreversible release of TPP+; format: biochemical, mouse
Experimental: The mitochondria were energized with succinate in the presence of TPP^+. TPP^+ is accumulated into the mitochondrial matrix in proportion to ΔP, and its concentration in the suspension medium is monitored using a TPP^+ sensitive electrode. Aliquots of Ca^++ are then added to the reaction solution, with each addition causing a transient release of TPP^+ as the Ca^++ is taken into the mitochondria at the expense of ΔP. […] At this juncture, ΔP collapses and the mitochondrial TPP^+ is irreversibly released into the suspension medium. The amount of Ca^++ required to cause irreversible release of TPP^+ provides a quantitative measurement of mtPTP sensitivity.
To determine if the ANTs provide a regulatory function for the mtPTP, ANT-deficient and control liver mitochondria were loaded with TPP^+ and then Ca^++ was added in the presence or absence of various mtPTP effectors until the TPP^+ was irreversibly released. The relative levels of Ca^++ required for permeability transition were then compared.
The calcium sensitivity of the mtPTP was calculated from 10 nmol CaCl2 additions to a reaction vessel containing 1 mg of mitochondrial protein in 1.0 ml of 250 mM sucrose, 10 mM MOPS, 2 mM K2HPO4, pH 7.2, and 5 mM succinate. Irreversible release of TPP^+ from the mitochondria was indicative of mtPTP activation.

mouse hepatocytes = assay: Induction of apoptosis in primary hepatocytes, apoptotic nuclei by Hoechst 33258 staining; format: cell-based; details: ANT-deficient and ANT-control hepatocytes; agent alone; 12 h
Experimental: Primary hepatocytes from ANT-deficient and ANT-control mice were cultured on collagen-coated cover glasses and treated with Fas ligand and Actinomycin D. After 12 h, cells were stained with Hoechst 33258 and images were acquired with a Zeiss Axio-10 fluorescence microscope. Cells with chromatin condensation and nuclei fragmentation were counted as apoptotic.
Hepatocytes were isolated from 12 to 15 month old anesthetized mice, perfused in situ with collagenase-dispase medium (Invitrogen, Carlsbad, Calif.). The hepatocytes were gently released, filtered and cultured on collagen coated cover glasses or plates in Waymouth's MB-752/1 medium containing 27 mM NaHCO3, 2 mM L-glutamine, 10% fetal calf serum, 0.5 μg/ml insulin, 0.5 μg/ml transferrin, 0.5 ng/ml sodium selenate and 100 nM dexamethasone (49). […]
Fas ligand-TNFα+Actinomycin D induced apoptosis was monitored by detection of apoptotic nuclei by staining with 10 μg/ml of Hoechst 33258 (Molecular Probes, Eugene, Oreg.) (9). Br-A23187-induced cell death after 1 h treatment was monitored by measuring the percentage of lactate dehydrogenase (LDH) released into the culture medium as a percentage of the activity in a Triton X-100 total cell lysate.

liver mitochondria = assay: ADP stimulation of respiration in liver mitochondria (oxygen consumption, succinate); format: biochemical, mouse; details: liver mitochondria from Ant1−/−, Ant2fl/Y, Alb-Cre (ANT-deficient) animals
Experimental: FIGS. 6A and 6B show ANT1 and ANT2 expression and respiration of control and ANT-deficient liver mitochondria. Liver mitochondria were isolated from Ant1^−/−, Ant2^fl/Y (ANT-control) or Ant1^−/−, Ant2^fl/Y, Alb-cre (ANT-deficient) mice. FIG. 6A: Western blot analysis using antibodies against ANT1 (left) and ANT2 (right). Heart mitochondria were used as a positive control for the presence of ANT1. ANT1 and ANT2, 30 kDa. FIG. 6B: Oxygen consumption was measured using succinate as substrate in ANT-control (left) and ANT-deficient (right) mitochondria. MITOS, addition of 600 μg of mitochondrial protein. ADP, 125 nmol ADP; FCCP (uncoupler), 75 nM.
Respiration and oxidative phosphorylation enzyme activities were measured polarographically and spectrophotometrically (42). The membrane potential was calculated from the mitochondrial uptake of TPP^+ using a TPP^+ sensitive electrode (44-47). The mtPTP was examined in liver 10-week-old Ant1^−/− or +/+, Ant2^fl/Y, Alb-Cre +/− animals.

mtPTP [2] = details: ANT-deficient and ANT-control mitochondria; 1 μM FCCP in the presence of Ca++
Experimental: To determine if the mtPTP could still exist in the absence of ANT, we isolated mitochondria from livers of Ant1^−/−, Ant2^fl/Y, Alb-Cre (ANT-deficient) and Ant1^−/−, Ant2^fl/Y (ANT-control) mice. […] The opening of the pore was monitored by following mitochondrial swelling through decreased light scattering.
Mitochondria (1 mg protein) were incubated in 1.5 ml of the above reaction medium with 16.5 nmol CaCl2. After two minutes 0.1 uM ruthenium red was added followed by FCCP.

[3] = ANT-control (Ant1−/−, Ant2fl/Y) liver mitochondria
[4] = ANT-deficient (Ant1−/−, Ant2fl/Y, Alb-Cre) liver mitochondria

Row | Compound | effect on Ca++ activation of the mtPTP (Ca++ required for permeability transition) (mtPTP [1]; [3]) | effect on Ca++ activation of the mtPTP (Ca++ required for permeability transition) (mtPTP [1]; [4]) | also measured
1 | CC(C)(C)OO [t-H2O2, Tert-butyl hydroperoxide] | activated the mtPTP | activated the mtPTP | 
2 | TNFα |  |  | induction of apoptosis (mouse hepatocytes): did not induce apoptosis
3 | CN(C)C(=O)/N=N/C(=O)N(C)C [DIA, diamide] | activated the mtPTP | activated the mtPTP | 
4 | Nc1ncnc2c1ncn2[C@@H]1O[C@H](COP(=O)(O)OP(=O)(O)O)[C@@H](O)[C@H]1O [ADP, adenosine diphosphate] | strongly inhibited | no effect; also recorded: without effect | stimulation of mitochondrial respiration (liver mitochondria): could not be stimulated
5 | Cc1c2oc3c(C)ccc(C(=O)N[C@@H]4C(=O)N[C@H](C(C)C)C(=O)N5CCC[C@H]5C(=O)N(C)CC(=O)N(C)[C@@H](C(C)C)C(=O)O[C@@H]4C)c3nc-2c(C(=O)N[C@@H]2C(=O)N[C@H](C(C)C)C(=O)N3CCC[C@H]3C(=O)N(C)CC(=O)N(C)[C@@H](C(C)C)C(=O)O[C@@H]2C)c(N)c1=O [Actinomycin D] (I: T[dV]P[Sar][NMeV] / II: T[dV]P[Sar][NMeV]; ester I:1-I:C, II:1-II:C; linker I:N-II:N via Actinocin(9to1)) |  |  | induction of apoptosis (mouse hepatocytes): did not induce apoptosis
6 | N#CC(C#N)=NNc1ccc(OC(F)(F)F)cc1 [FCCP, carbonyl cyanide p-(trifluoromethoxy)phenylhydrazone] |  |  | FCCP-induced mtPTP activation (mitochondrial swelling) (mtPTP [2]): responded equally well
7 | C=C1[C@@H]2CC[C@H]3[C@]4(C)C[C@H](O[C@@H]5O[C@H](CO)[C@@H](OS(=O)(=O)O)[C@H](OS(=O)(=O)O)[C@H]5OC(=O)CC(C)C)C[C@@H](C(=O)O)[C@H]4CC[C@]3(C2)[C@H]1O [ATR, atractyloside] | activated the mtPTP | no effect | 
